Earlier results, collected in paper PMC11372459 (Acta Pharmaceutica Sinica. B, 2024).

Tested on: Gram-positive bacteria

In the case of “Nisin (ITSISLCTPGCKTGALMGCNMKTATCHCSIHVSK; not fully specified; Lantibiotic nisin-A; UniProt P13068 24-57, looked up)”, the antibacterial spectrum is given as “specific activity against Gram-positive bacteria”.
